Structures can show the parent of a compound that is named as a salt.
What was measured:
ALPK1 = ALPK1 (Homo sapiens (Human), UniProt Q96QP1); assay: ALPK1 in vitro kinase assay (HTRF of TIFA phosphorylation); assay type: biochemical; conditions: ALPK1 2 nM activated by ADP-Heptose, TIFA substrate
Method: ALPK1 in vitro Kinase Assay
ALPK1 kinase activity was measured in an in vitro assay using ADP-Heptose as the ALPK1 ligand and activator of its kinase activity and TIFA protein as the ALPK1 phosphorylation substrate. Since phosphorylated TIFA proteins oligomerize, Homogeneous Time-Resolved Fluorescence (HTRF) was used to measure protein: protein interaction between HA-tagged TIFA proteins as an indicator of TIFA phosphorylation.
In brief, dose-response studies were performed in 384-well assay plates. Each well contained 0.1 mg TIFA, ALPK1 (2 nM final concentration in reaction mixture) and kinase buffer (100 mM of HEPES pH 7.4, 4 mM DTT, 40 mM MgCl2, 20 mM of β-Glycerol phosphate disodium salt, 0.4 mM of Na3VO4, 0.16 mg/mL). Titrations of the test compounds were prepared in dimethylsulphoxide (DMSO). The reaction was initiated by addition of ATP and ADP-Heptose.
For HTRF, samples were incubated with a Tb cryptate-labeled anti-HA antibody for capturing HA-tagged proteins according to the manufacturer's instructions (PerkinElmer™, CisBio™) and the fluorescence signal was quantified (Tecan Infinite F NANO+). HTRF signals were calculated as the HTRF ratio (ratio of fluorescence measured at 665 nm and 620 nm)×104 (thereby using the signal at 620 nm as an internal standard).
IC50 values were determined using 3- or 4-parameter logistic equation using GraphPad Prism version 6.00. The reference compound, A027, was used as a positive control for each plate.

[1] = test system: ALPK1-dependent NFκB reporter gene activation in HEK293 cells stably expressing an NF-kB reporter (G9 cells); assay: NFκB gene reporter alkaline phosphatase assay; assay type: cell-based; conditions: Homo sapiens, read-out: NFKB assay IC50
Method: NFκB Gene Reporter Alkaline Phosphatase Assay
An alkaline phosphatase reporter assay system was used to measure inhibition of ALPK1-dependent NFκB reporter gene activation. Briefly, HEK293 cells stably expressing an NF-kB reporter (referred to herein as “G9 cells”) were maintained in Dulbecco's Modified Eagle Medium (DMEM) supplemented with 10% fetal bovine serum (FBS, Hyclone™) containing antibiotics (pen/strep, G418) […]. For the assay, cells were seeded into 96-well plates at a density of 10,000 cells/well in Freestyle™ 293 Expression Medium (ThermoFisher) and allowed to attach overnight. […] NFkB gene activation was detected using the chromogenic substrate, para-nitrophenyl phosphate (pNPP) according to the manufacturer's protocols (pNPP Phosphatase Assay, Beyotime Biotechnology).

[2] = test system: ALPK1-dependent gene expression in kidney; assay: Inhibition of ALPK1 in kidney: ALPK1 agonist-induced gene expression in rats; assay type: in vivo, Sprague-Dawley (SD) rats; conditions: SD rats, oral 2, 5, 10, 20 mpk 21 h before ip ALPK1 agonist, kidneys 3 h after agonist; relative to vehicle group
[3] = test system: lupus nephritis in MRL/MpJ-Faslpr/J mice; assay: MRL/MpJ-Faslpr/J mouse lupus nephritis model; assay type: in vivo
Description: After 8 weeks of treatment, the animals were sacrificed, and their urine was collected for proteinuria assessment using Urine Protein Test Strips (FIG. 9). The right kidneys were harvested and stained by hematoxylin and eosin (H&E) for pathological evaluation (FIG. 10A-G).

[4] = test system: UUO induced kidney fibrosis; conditions: rat UUO
Description: Briefly, we ligated the left ureter of rat and then start the daily oral treatment right after the surgery for 7 days, and then measure the kidney fibrosis by hydroxyproline content measurement and Sirus red staining. Because of the amount of renal inflammation, we used hydroxyproline (OH-P) content indexed to total protein for interpretation of UUO-induced fibrosis and compound efficacy (FIG. 3A) For completeness, we also analyzed the OH-P content indexed to tissue mass (FIG. 3B).

[5] = test system: adenine diet induced rat CKD model
Description: We started compound dosing from day 14 after adenine diet inception for 6 weeks. During the study, we collected plasma and measure the Blood Urea Nitrogen (BUN) (FIG. 6A) and creatine (FIG. 6B) level weekly.

[6] = 10 mg/kg oral daily, 8 weeks, kidney H&E
[7] = daily oral treatment for 7 days, C008 at 7 mpk & 20 mpk

Sequence of ALPK1 (Q96QP1 whole entry): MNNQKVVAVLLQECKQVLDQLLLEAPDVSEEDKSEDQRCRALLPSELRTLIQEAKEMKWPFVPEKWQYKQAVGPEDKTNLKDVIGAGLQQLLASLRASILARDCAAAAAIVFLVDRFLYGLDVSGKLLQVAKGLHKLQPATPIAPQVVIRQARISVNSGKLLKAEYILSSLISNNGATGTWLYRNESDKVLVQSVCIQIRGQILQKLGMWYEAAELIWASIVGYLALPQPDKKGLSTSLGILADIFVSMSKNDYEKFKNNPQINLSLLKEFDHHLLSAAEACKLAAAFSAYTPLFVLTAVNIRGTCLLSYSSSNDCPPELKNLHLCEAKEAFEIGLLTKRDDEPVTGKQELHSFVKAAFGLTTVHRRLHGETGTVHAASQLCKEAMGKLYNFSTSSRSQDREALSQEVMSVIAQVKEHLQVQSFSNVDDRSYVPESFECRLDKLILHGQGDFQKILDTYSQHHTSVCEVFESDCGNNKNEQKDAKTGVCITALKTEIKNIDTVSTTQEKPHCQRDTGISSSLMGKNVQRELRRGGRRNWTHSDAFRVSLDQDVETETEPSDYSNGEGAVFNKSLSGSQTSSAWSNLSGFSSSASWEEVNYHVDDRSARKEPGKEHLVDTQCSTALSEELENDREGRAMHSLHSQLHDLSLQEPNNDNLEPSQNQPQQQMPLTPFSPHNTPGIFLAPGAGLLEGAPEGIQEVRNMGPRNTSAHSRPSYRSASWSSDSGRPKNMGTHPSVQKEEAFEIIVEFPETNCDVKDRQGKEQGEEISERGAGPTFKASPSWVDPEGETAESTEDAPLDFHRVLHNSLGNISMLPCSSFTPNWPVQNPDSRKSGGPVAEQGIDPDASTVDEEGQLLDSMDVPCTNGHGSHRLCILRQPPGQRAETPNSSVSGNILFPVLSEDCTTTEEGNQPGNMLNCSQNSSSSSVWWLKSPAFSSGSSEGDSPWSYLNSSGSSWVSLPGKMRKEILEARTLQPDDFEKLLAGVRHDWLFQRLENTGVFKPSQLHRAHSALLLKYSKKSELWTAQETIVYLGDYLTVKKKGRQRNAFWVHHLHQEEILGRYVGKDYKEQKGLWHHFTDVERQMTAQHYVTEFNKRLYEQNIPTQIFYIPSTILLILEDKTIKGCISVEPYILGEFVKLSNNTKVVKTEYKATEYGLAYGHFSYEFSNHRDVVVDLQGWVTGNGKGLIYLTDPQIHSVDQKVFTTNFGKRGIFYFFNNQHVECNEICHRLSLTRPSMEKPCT

Structure (SMILES): COc1ccc(C(C)(C)c2csc(NC(=O)c3ccc(N4CCC(O)C4)cc3)n2)cc1 (centres unmarked) [Example B009, 4-(3-hydroxypyrrolidin-1-yl)-N-(4-(2-(4-methoxyphenyl)propan-2-yl)thiazol-2-yl)benzamide]
- IC50 (ALPK1): 95 nM

Structure (SMILES): C#C[C@](C)(c1ccc(Cl)cc1)c1csc(NC(=O)c2c(F)cc(N3CCN(C)CC3)cc2F)n1 (stereo in doubt) [Example C009, N-(4-(2-(4-chlorophenyl)but-3-yn-2-yl)thiazol-2-yl)-2,6-difluoro-4-(4-methylpiperazin-1-yl)benzamide]
- IC50 (ALPK1): 7 nM

Structure (SMILES): C#C[C@@](C)(c1ccc(F)cc1)c1csc(NC(=O)c2ccc(N3CCNCC3CO)cc2)n1 (stereo in doubt) [Example B070, N-[4-[1-(4-fluorophenyl)-1-methyl-prop-2-ynyl]thiazol-2-yl]-4-[2-(hydroxymethyl)piperazin-1-yl]benzamide]
- IC50 (ALPK1): 169 nM

Structure (SMILES): COc1ccc(C(C)(C)c2csc(NC(=O)N3CC(c4ccc(N5CCNCC5)cc4)C3)n2)cc1 [Example A233, N-(4-(2-(4-methoxyphenyl)propan-2-yl)thiazol-2-yl)-3-(4-(piperazin-1-yl)phenyl)azetidine-1-carboxamide]
- IC50 [1]: 330 nM

Structure (SMILES): C#C[C@@](C)(c1ccc(Cl)cc1)c1csc(NC(=O)c2c(F)cc(N3CCNCC3)cc2F)n1 [Example C008, (S)-N-(4-(2-(4-chlorophenyl)but-3-yn-2-yl)thiazol-2-yl)-2,6-difluoro-4-(piperazin-1-yl)benzamide]
- mRNA expression for CCL-2, CCL-7, CXCL-1, CXCL-10, IL-1β and IL-6 in kidney [2]: significant decreases
- proteinuria scores ([3]; 10 mg/kg oral daily, 8 weeks, compared to vehicle disease group): significant reduction
- pathological score: crescent [3, 6]: significantly lower
- pathological score: glomerulus diameter [3, 6]: significantly lower
- pathological score: interstitial inflammation [3, 6]: significantly lower
- pathological score: protein cast [3, 6]: significantly lower
- mRNA expression of Ccl2, Ccl4, Ccl5, Ccr1 and IL-6 in kidney ([3]; left kidneys, qPCR, after 8 weeks, relative to vehicle group): significant decreases
- UUO induced kidney fibrosis ([4]; C008 2, 7, 20 mg/kg): dose dependently suppress
- UUO-induced increases in renal cortical CVF (Collagen Volume Fraction, Sirus Red) [4, 7]: attenuated
- UUO-induced increases in renal cortical OH-P (hydroxyproline) [4, 7]: attenuated
- kidney expression of genes involved in fibrosis and inflammation ([4]; separate study, C008 5, 10, 20 mg/kg): inhibited
- adenine-induced increases in renal cortical CVF ([5]; rat adenine diet, end of study, C008 at 7 and 20 mpk): attenuated
- adenine-induced increases in plasma creatinine ([5]; rat adenine diet, ALK5i: days 35-56, C008: days 35 (20 mpk), 49 & 56 (7&20 mpk)): attenuated
- adenine-induced increases in plasma BUN ([5]; rat adenine diet, ALK5i: days 35-56, C008: days 42 (20 mpk), 49 (7&20 mpk), 56 (20 mpk)): attenuated
- adenine diet induced kidney dysfunction and kidney fibrosis ([5]; rat, C008 7, 20 mg/kg, dosing from day 14 for 6 weeks): significantly inhibit

Structure (SMILES): COc1ccc(C(C)(C)c2csc(NC(=O)c3ccc(N4CCNCC4C)cc3)n2)cc1 (centres unmarked) [Example B014]
- IC50 (ALPK1): 300 nM

Structure (SMILES): COc1ccc(C(C)(C)c2csc(NC(=O)NCc3cc(F)c(C4CCNCC4)c(F)c3)n2)cc1 [Example A151, 1-(3,5-difluoro-4-(piperidin-4-yl)benzyl)-3-(4-(2-(4-methoxyphenyl)propan-2-yl)thiazol-2-yl)urea hydrochloride]
- IC50 [1]: 950 nM

Structure (SMILES): COc1ccc(C(C)(C)c2csc(NC(=O)NCc3cc(F)c(N4CCNCC4)cc3F)n2)cc1 [Example A231, 1-(2,5-difluoro-4-(piperazin-1-yl)benzyl)-3-(4-(2-(4-methoxyphenyl)propan-2-yl)thiazol-2-yl)urea hydrochloride]
- IC50 [1]: 3360 nM

Structure (SMILES): C#C[C@](C)(c1ccc(Cl)cc1)c1nc(NC(=O)c2c(F)cc(N3CCNCC3)cc2F)sc1Cl (stereo in doubt) [Example C050, N-(5-chloro-4-(2-(4-chlorophenyl)but-3-yn-2-yl)thiazol-2-yl)-2,6-difluoro-4-(piperazin-1-yl)benzamide]
- IC50 (ALPK1): 923 nM
